Experimental data reported in patent US20050208139A1 (Ascend Therapeutics, Inc., priority 2004, published 2005).

Test: Isomerization of 4-hydroxy tamoxifen in hydroalcoholic solutions at 25°, 30° and 40° C., Z/E isomers by HPLC (Example 1)
Assay type: physicochemical
Protocol: Hydroalcoholic solutions containing 4-hydroxy tamoxifen were prepared, based on the following gel formula: […]
In the hydroalcoholic solutions, phosphate buffer was substituted for Klucel. The composition of the buffer was as follows:
At each of the stated concentrations, separate solutions containing Z-4-hydroxy tamoxifen or a mixture of Z- and E-4-hydroxy tamoxifen were prepared.
Each solution was subdivided into three parts in 30 ml brown glass bottles, then placed in ovens regulated at 25°, 30°, and 40° C.
The relative amounts of Z- and E-4-hydroxy tamoxifen isomers were determined at the initiation of the study and at 2-week, 1-month, 2-month, 3-month, 4-month and 5-month time points.
Operating parameters for the HPLC were as follows:
The order of elution was as follows: • 4-OHT E: retention time about 13.3 min • 4-OHT Z: retention time about 15.0 min.
Percentages of each isomer were calculated using the following formulas: [formula] [formula] D. Data fitting:
The reversible isomerization reaction and the equilibrium reaches are lied by the following relationship: [formula] where • A0=initial concentration of the reagent • Aeq=concentration of the same reagent at equilibrium • A=the concentration of A at time t • kf=forward rate constant • kr=reverse rate constant • t=time measured in months
A plot of log [formula] as a function of time gives a straight line fit with a slope of [formula] and a y-intercept of 0. E. Results

[1] = 25° C., nominal 4-hydroxy tamoxifen concentration (Z + E) in solution 0.02%
[2] = 25° C., nominal concentration (Z + E) 0.04%
[3] = 25° C., nominal concentration (Z + E) 0.06%
[4] = 25° C., nominal concentration (Z + E) 0.08%
[5] = 25° C., nominal concentration (Z + E) 0.10%
[6] = 30° C., nominal concentration (Z + E) 0.02%
[7] = 30° C., nominal concentration (Z + E) 0.04%
[8] = 30° C., nominal concentration (Z + E) 0.06%
[9] = 30° C., nominal concentration (Z + E) 0.08%
[10] = 30° C., nominal concentration (Z + E) 0.10%
[11] = 40° C., nominal concentration (Z + E) 0.02%
[12] = 40° C., nominal concentration (Z + E) 0.04%
[13] = 40° C., nominal concentration (Z + E) 0.06%
[14] = 40° C., nominal concentration (Z + E) 0.08%
[15] = 40° C., nominal concentration (Z + E) 0.10%

In the case of `CC/C(=C(\c1ccc(O)cc1)c1ccc(OCCN(C)C)cc1)c1ccccc1` [Batch PANCHIM 7421], the Rate constant [1] is reported as 0.0225 month^−1, the Rate constant [2] is reported as 0.0637 month^−1 and the Rate constant [3] is reported as 0.0886 month^−1. It also gave a Rate constant [4] of 0.1352 month^−1, a Rate constant [5] of 0.1827 month^−1 and a Rate constant [6] of 0.0457 month^−1. The Rate constant [7] was 0.0864 month^−1, the Rate constant [8] was 0.1487 month^−1 and the Rate constant [9] was 0.1900 month^−1. It also gave a Rate constant [10] of 0.2568 month^−1, a Rate constant [11] of 0.1097 month^−1 and a Rate constant [12] of 0.2287 month^−1. It also gave a Rate constant [13] of 0.3877 month^−1, a Rate constant [14] of 0.5311 month^−1 and a Rate constant [15] of 0.6300 month^−1.
With `CC/C(=C(\c1ccc(O)cc1)c1ccc(OCCN(C)C)cc1)c1ccccc1` [ICI batch Bx 17] the Rate constant [1] was 0.0347 month^−1, the Rate constant [2] was 0.0484 month^−1 and the Rate constant [3] was 0.0916 month^−1. It also gave a Rate constant [4] of 0.1476 month^−1, a Rate constant [5] of 0.2169 month^−1 and a Rate constant [6] of 0.0254 month^−1. It also gave a Rate constant [7] of 0.0801 month^−1, a Rate constant [8] of 0.1563 month^−1 and a Rate constant [9] of 0.2718 month^−1. It also gave a Rate constant [10] of 0.3103 month^−1, a Rate constant [11] of 0.0722 month^−1 and a Rate constant [12] of 0.2323 month^−1. The Rate constant [13] was 0.3924 month^−1, the Rate constant [14] was 0.5095 month^−1 and the Rate constant [15] was 0.6960 month^−1.
